Entries after “also recorded” stand apart in the source; their conditions may differ.
Key:
Rh36 = assay: In vitro cellular proliferation assay ([3H]-thymidine incorporation); type: cell-based, human; settings: Rh36 (Rhabdomyosarcoma)
Experimental: (§1) All pediatric sarcoma and neuroblastoma cell lines were obtained from Dr. Lee Helman at NIH. All cell lines were grown in RPMI medium supplemented with Glutamax (Gibco/Invitrogen #61870-036), 10% inactivated fetal bovine serum (Gibco/Invitrogen #16140-071), 10 mM Hepes, penicillin and streptomycin.
(§2) Cells were plated at an optimized density for each cell line per well in 96-well microtiter Falcon plates, incubated overnight, and then exposed to a serial dilution of drug. After 72 hours incubation with drug at 37° C., cells were pulsed with 4 μCi/ml [6-3H] thymidine (Amersham Pharmacia Biotech, UK) for 3 hours, trypsinized, harvested onto UniFilter-96, GF/B plates (PerkinElmer, Boston, Mass.) and scintillation was measured on a TopCount NXT (Packard, Conn.). Results were expressed as an IC50, which is the drug concentration required to inhibit cell proliferation by 50% to that of untreated control cells. The mean IC50 and standard deviation (SD) from multiple tests for each cell line were calculated.

SK-NSH = assay: as above; type: cell-based, human; settings: SK-NSH (Neuroblastoma)
Experimental: as §1, §2

LG = assay: as above; type: cell-based, human; settings: LG (Ewing)
Experimental: as §1, §2

Rh4 = assay: as above; type: cell-based, human; settings: Rh4 (Rhabdomyosarcoma)
Experimental: as §1, §2

SA-4 = assay: as above; type: cell-based, human; settings: SA-4 (Liposarcoma)
Experimental: as §1, §2

VW = assay: as above; type: cell-based, human; settings: VW (Ewing)
Experimental: as §1, §2

ME = assay: as above; type: cell-based, human; settings: ME (Rhabdomyosarcoma)
Experimental: as §1, §2

H211 = assay: as above; type: cell-based, human; settings: H211 (Melignant Pleural Mesothelioma)
Experimental: as §1, §2

Rh41 = assay: as above; type: cell-based, human; settings: Rh41 (Rhabdomyosarcoma)
Experimental: as §1, §2

JD = assay: as above; type: cell-based, human
Experimental: as §1, §2

H2052 = assay: as above; type: cell-based, human; settings: H2052 (Melignant Pleural Mesothelioma)
Experimental: as §1, §2

HTB-92 = assay: as above; type: cell-based, human; settings: HTB-92 (Liposarcoma)
Experimental: as §1, §2

SW-684 = assay: as above; type: cell-based, human; settings: SW-684 (Fibrosarcoma)
Experimental: as §1, §2

TC32 = assay: as above; type: cell-based, human; settings: TC32 (Ewing)
Experimental: as §1, §2

H513 = assay: as above; type: cell-based, human; settings: H513 (Melignant Pleural Mesothelioma)
Experimental: as §1, §2

5838 = assay: as above; type: cell-based, human; settings: 5838 (Ewing)
Experimental: as §1, §2

SHSY5Y = assay: as above; type: cell-based, human; settings: SHSY5Y (Neuroblastoma)
Experimental: as §1, §2

LAN-1 = assay: as above; type: cell-based, human; settings: LAN-1 (Neuroblastoma)
Experimental: as §1, §2

H2595 = assay: as above; type: cell-based, human; settings: H2595 (Melignant Pleural Mesothelioma)
Experimental: as §1, §2

RDES = assay: as above; type: cell-based, human; settings: RDES (Ewing)
Experimental: as §1, §2

KAG = assay: as above; type: cell-based, human; settings: KAG (Ewing)
Experimental: as §1, §2

CTR = assay: as above; type: cell-based, human
Experimental: as §1, §2

HT1080/S = assay: as above; type: cell-based, human; settings: HT1080/S (Fibrosarcoma)
Experimental: as §1, §2

IMR-32 = assay: as above; type: cell-based, human; settings: IMR-32 (Neuroblastoma)
Experimental: as §1, §2

RD1-Resist cells = assay: In vitro cellular proliferation assay, compound 1 acquired resistant RD1; type: cell-based; settings: Homo sapiens
Experimental: as §1, §2
Acquired resistance to anti-cancer agents is a major clinical problem. […] In order to identify markers that may contribute to acquired resistance to the IGF1R inhibitor, global gene expression profiles for both parental RD1 and resistant RD1 were analyzed using Affymetrix gene chip. […]

Rh36 cells = assay: Gene and protein expression profiling of cells with compound 1 treatment; type: cell-based, human; settings: later time points, 36 and 72 hrs
[1] = Homo sapiens, 72 hours with drug, read-out: IC50

## Cc1cc(N2CCOCC2)cc2[nH]c(-c3c(NC[C@@H](O)c4cccc(Cl)c4)cc[nH]c3=O)nc12 [Compound 1, (S)-4-(2-(3-chlorophenyl)-2-hydroxyethylamino)-3-(4-methyl-6-morpholino-1H-benzo[d]imidazol-2-yl)-pyridin-2(1-H)-one]
Rh36; [1]
  IC50: 1600 nM
Rh36
  Sensitivity Classification: R (“R” means resistant to the corresponding compounds.)
SK-NSH; Homo sapiens, SK-N-SH, 72 hours with drug, read-out: IC50
  IC50: 196 nM
SK-NSH
  Sensitivity Classification: S (“S” means sensitive)
LG; [1]
  IC50: 63 nM
LG
  Sensitivity Classification: S (“S” means sensitive)
Rh4; [1]
  IC50: 27 nM
Rh4
  Sensitivity Classification: S (“S” means sensitive)
SA-4; [1]
  IC50: 779 nM
SA-4
  Sensitivity Classification: R (“R” means resistant to the corresponding compounds.)
VW; [1]
  IC50: 101 nM
VW
  Sensitivity Classification: S (“S” means sensitive)
ME; [1]
  IC50: 163 nM
ME
  Sensitivity Classification: S (“S” means sensitive)
H211
  Sensitivity Classification: R (“R” means resistant to the corresponding compounds.)
H211; Homo sapiens, NCI-H211, 72 hours with drug, read-out: IC50
  IC50: 418 nM
Rh41; [1]
  IC50: 69 nM
Rh41
  Sensitivity Classification: S (“S” means sensitive)
JD; Homo sapiens, JD (Ewing), 72 hours with drug, read-out: IC50
  IC50: 232 nM
JD; JD
  sensitivity/resistance classification in words: resistant
JD; JD (Ewing)
  Sensitivity Classification: S (“S” means sensitive)
H2052
  Sensitivity Classification: R (“R” means resistant to the corresponding compounds.)
H2052; Homo sapiens, NCI-H2052, 72 hours with drug, read-out: IC50
  IC50: 403 nM
HTB-92
  Sensitivity Classification: R (“R” means resistant to the corresponding compounds.)
HTB-92; [1]
  IC50: 584 nM
SW-684; Homo sapiens, SW684, 72 hours with drug, read-out: IC50
  IC50: 5000 nM
SW-684
  Sensitivity Classification: R (“R” means resistant to the corresponding compounds.)
TC32; Homo sapiens, TC-32, 72 hours with drug, read-out: IC50
  IC50: 55 nM
TC32
  Sensitivity Classification: S (“S” means sensitive)
H513
  Sensitivity Classification: R (“R” means resistant to the corresponding compounds.)
H513; [1]
  IC50: 3120 nM
5838
  Sensitivity Classification: S (“S” means sensitive)
5838; [1]
  IC50: 172 nM
SHSY5Y; Homo sapiens, SH-SY5Y, 72 hours with drug, read-out: IC50
  IC50: 149 nM
SHSY5Y
  Sensitivity Classification: S (“S” means sensitive)
LAN-1; Homo sapiens, LAN1, 72 hours with drug, read-out: IC50
  IC50: 136 nM
LAN-1
  Sensitivity Classification: S (“S” means sensitive)
H2595
  Sensitivity Classification: R (“R” means resistant to the corresponding compounds.)
H2595; Homo sapiens, NCI-H2595, 72 hours with drug, read-out: IC50
  IC50: 5000 nM
RDES; Homo sapiens, RD-ES, 72 hours with drug, read-out: IC50
  IC50: 123 nM
RDES
  Sensitivity Classification: S (“S” means sensitive)
KAG; [1]
  IC50: 2110 nM
KAG
  Sensitivity Classification: R (“R” means resistant to the corresponding compounds.)
CTR; CTR
  sensitivity/resistance classification in words: resistant
CTR; CTR (Rhabdomyosarcoma)
  Sensitivity Classification: R (“R” means resistant to the corresponding compounds.)
CTR; Homo sapiens, CTR (Rhabdomyosarcoma), 72 hours with drug, read-out: IC50
  IC50: 370 nM
HT1080/S
  Sensitivity Classification: R (“R” means resistant to the corresponding compounds.)
HT1080/S; Homo sapiens, HT-1080, 72 hours with drug, read-out: IC50
  IC50: 1410 nM
IMR-32; [1]
  IC50: 277 nM
IMR-32
  Sensitivity Classification: S (“S” means sensitive)
RD1-Resist cells
  IC50: 2000 nM
RD1-Resist cells; RD1, acquired resistant RD-1 cells
  IC50: 2000 nM
Rh36 cells
  effect of drug on gene/protein expression: little to no effect; also recorded: little, to no effect
